Here are results for 33 molecules from patent US20250313535A1, “ALPHA 4 BETA 7 INTEGRIN MODULATORS AND USES THEREOF” (DICE MOLECULES SV, INC., priority 2022, published 2025).

The target in one experiment is α4β7 integrin (Homo sapiens (Human), UniProt P13612+P26010). The experiment is described as follows: Integrin Adhesion Assay: Protocol 1 (MAdCAM-coated plate, RPMI-8866 cells, CellTiter GLO readout). The conditions noted are these: integrin adhesion assay; determined by at least one of the assays described (protocol not specified). It counts as cell-based. The method, boiled down:
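RPMI-8866 cells (2×10^6 per mL) added with compounds (1% DMSO) to MAdCAM-coated wells blocked in HEPES/NaCl buffer with 1 mM MnCl2, 0.1 mM CaCl2, 1% BSA; 1 h at 37° C, 5% CO2. After four washes, bound cells read by CellTiter GLO luminescence; % inhibition vs DMSO and control wells, 4-parameter fit.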

The target of the next experiment is α4β1 integrin (Homo sapiens (Human), UniProt P05556+P13612). Description: Integrin Adhesion Assay: Protocol 2 (VCAM-coated plate, Jurkat cells, CellTiter GLO readout). The conditions noted are these: determined by at least one of the assays described (protocol not specified). It counts as cell-based. Here is the method:
α4β7 and α4β1 inhibition was evaluated in vitro using at least one of the following procedures:
Integrin Adhesion Assay: Protocol 2
VCAM (R&D Systems, 0.1 ug) was diluted in 50 μL PBS, added to each well of an opaque ELISA plate (Thermo), and incubated overnight at 4° C. Coated plates were washed once with PBS and then blocked with 200 μL of assay buffer (10 mM HEPES, 150 mM NaCl, 1 mM MnCl2, 0.1 mM CaCl2), 1% BSA) for 1 hour at 37° C. and 5% CO2. After incubation, buffer was aspirated from the plates and 50 μL of fresh assay buffer was added. Compounds were added by compounds dispenser (Tecan) and DMSO concentration was normalized to 1% across each plate. 50 μL of Jurkat cells (2×10^6 per mL) were added to each well and the plates were incubated for 1 hour at 37° C. and 5% CO2. After incubation, plates were allowed to cool to RT for 10 minutes before being washed four times in assay buffer by an automated plate washer (BioTek). After washing, 100 μL of a 1:1 mixture of assay buffer and CellTiter GLO 2.0 reagent (Promega) were added to each well. Plates were mixed for 2 minutes at 1000 rpm and then allowed to incubate an additional 10 minutes before reading out luminescence on a Tecan Spark plate reader. Raw data was converted to percent inhibition based on DMSO only and control compound wells, and curves were analyzed by 4-parameter fit within Dotmatics software.
On the technique in general: In ATP-based viability assays light output follows the ATP content of the culture.

α4β1 integrin, sequence (P13612 34-1032): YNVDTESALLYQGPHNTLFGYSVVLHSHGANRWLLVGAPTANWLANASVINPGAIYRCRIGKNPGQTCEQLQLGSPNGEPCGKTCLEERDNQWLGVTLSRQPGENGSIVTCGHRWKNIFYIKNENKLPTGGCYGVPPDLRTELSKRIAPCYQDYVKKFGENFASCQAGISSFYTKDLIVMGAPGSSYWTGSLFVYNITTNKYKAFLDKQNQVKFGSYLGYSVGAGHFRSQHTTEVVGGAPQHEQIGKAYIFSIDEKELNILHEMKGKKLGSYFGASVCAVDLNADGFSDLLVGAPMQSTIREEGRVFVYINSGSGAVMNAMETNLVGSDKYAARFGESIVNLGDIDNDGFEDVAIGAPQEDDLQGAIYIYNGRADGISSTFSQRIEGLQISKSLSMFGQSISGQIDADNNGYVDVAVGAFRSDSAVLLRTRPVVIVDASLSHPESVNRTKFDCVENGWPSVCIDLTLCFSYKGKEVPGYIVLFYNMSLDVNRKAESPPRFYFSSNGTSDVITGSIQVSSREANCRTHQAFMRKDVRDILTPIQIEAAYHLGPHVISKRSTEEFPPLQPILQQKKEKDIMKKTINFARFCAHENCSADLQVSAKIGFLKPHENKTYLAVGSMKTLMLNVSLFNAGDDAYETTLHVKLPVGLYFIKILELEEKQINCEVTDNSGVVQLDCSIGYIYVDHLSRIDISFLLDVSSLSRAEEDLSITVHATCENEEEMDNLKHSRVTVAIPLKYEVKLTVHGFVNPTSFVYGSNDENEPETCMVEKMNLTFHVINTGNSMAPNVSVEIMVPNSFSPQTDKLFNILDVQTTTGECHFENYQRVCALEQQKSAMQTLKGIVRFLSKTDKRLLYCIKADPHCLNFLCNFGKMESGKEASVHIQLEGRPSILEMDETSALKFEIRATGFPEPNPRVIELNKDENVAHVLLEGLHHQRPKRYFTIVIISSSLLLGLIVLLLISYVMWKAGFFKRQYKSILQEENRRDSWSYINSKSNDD
α4β1 integrin, sequence (P05556 21-798): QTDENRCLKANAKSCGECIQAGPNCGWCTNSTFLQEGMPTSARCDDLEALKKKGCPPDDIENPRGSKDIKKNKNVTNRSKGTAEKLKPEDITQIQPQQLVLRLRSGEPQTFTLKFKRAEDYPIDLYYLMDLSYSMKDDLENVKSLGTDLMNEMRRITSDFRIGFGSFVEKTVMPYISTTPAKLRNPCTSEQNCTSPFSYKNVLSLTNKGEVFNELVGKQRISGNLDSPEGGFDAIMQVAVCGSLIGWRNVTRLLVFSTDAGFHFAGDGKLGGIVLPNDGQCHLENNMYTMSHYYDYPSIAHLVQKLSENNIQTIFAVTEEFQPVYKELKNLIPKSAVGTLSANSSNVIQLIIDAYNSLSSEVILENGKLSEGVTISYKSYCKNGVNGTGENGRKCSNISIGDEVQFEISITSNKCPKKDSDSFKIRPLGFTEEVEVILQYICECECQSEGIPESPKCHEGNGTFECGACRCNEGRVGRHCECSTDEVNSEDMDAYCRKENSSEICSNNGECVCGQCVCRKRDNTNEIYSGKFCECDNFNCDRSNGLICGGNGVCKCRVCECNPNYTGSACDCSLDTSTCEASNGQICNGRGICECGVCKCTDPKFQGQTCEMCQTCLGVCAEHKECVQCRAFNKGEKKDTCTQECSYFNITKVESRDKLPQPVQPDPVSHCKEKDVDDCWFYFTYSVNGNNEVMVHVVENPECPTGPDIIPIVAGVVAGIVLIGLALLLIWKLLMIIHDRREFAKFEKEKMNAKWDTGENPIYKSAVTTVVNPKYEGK
α4β7 integrin, sequence (P13612 34-1032): as the sequence (P13612 34-1032) above
α4β7 integrin, sequence (P26010 20-798): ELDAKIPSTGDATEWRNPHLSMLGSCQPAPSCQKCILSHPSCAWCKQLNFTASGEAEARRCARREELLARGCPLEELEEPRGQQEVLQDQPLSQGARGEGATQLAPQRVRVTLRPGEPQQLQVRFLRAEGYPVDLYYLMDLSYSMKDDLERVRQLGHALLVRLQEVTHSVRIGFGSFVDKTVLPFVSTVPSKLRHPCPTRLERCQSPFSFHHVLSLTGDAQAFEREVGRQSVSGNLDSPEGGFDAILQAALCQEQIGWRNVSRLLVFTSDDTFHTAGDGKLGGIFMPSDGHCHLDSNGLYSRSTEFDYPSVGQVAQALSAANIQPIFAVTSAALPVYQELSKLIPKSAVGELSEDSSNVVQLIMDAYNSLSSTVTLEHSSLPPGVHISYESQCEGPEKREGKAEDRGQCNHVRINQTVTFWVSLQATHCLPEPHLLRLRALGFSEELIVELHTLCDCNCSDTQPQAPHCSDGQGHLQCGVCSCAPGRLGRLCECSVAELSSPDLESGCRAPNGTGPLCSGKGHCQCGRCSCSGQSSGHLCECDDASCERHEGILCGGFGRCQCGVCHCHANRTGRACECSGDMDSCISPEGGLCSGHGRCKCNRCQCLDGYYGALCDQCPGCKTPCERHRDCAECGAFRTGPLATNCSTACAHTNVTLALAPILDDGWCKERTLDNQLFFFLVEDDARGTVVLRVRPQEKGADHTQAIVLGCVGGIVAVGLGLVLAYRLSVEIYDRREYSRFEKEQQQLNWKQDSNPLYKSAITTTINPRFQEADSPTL

For `Cn1ccc(C(F)(F)F)c(-c2nccc3c(C[C@H](NC(=O)c4c(F)cc5nc(CC(F)(F)F)[nH]c5c4F)C(=O)O)cccc23)c1=O` [Compound 213], the IC50 is 10 to 100 nM at α4β7 integrin and > 1000 nM at α4β1 integrin.
Taken in the same sequence, the figures for `Cn1ccc(=O)n(-c2cccc3c(C[C@H](NC(=O)C4(C)CCOCC4)C(=O)O)cccc23)c1=O` [Compound 10] were 10 to 100 nM and 100 to 1000 nM.
In the case of `COc1cc(F)c(C(=O)N[C@@H](Cc2cccc3c(-n4c(=O)ccn(C)c4=O)cccc23)C(=O)O)c(F)c1` [Compound 28], the IC50 was 10 to 100 nM against α4β7 integrin and > 1000 nM at α4β1 integrin.
With `Cn1ccc(=O)n(-c2cccc3c(C[C@H](NC(=O)c4c(F)cccc4CN4CCOCC4)C(=O)O)cccc23)c1=O` [Compound 167], the IC50 against α4β7 integrin is < 10 nM; on α4β1 integrin it was 100 to 1000 nM.
As for `Cn1ccc(=O)n(-c2cccc3c(C[C@H](NC(=O)[C@]45C[C@@H]6C[C@H](C4)C(F)(F)[C@@H](C6)C5)C(=O)O)cccc23)c1=O` [Compound 65], the IC50 against α4β7 integrin and against α4β1 integrin was 100 to 1000 nM in each case.
Consider `Cn1ccc(=O)n(-c2cccc3c(C[C@H](NC(=O)C4(C)CCCCC4)C(=O)O)cccc23)c1=O` [Compound 161], for which the IC50 against α4β7 integrin is 100 to 1000 nM; against α4β1 integrin it was > 1000 nM.
Taken in the same sequence, the figures for `Cn1ccc(C(F)(F)F)c(-c2cccc3c(C[C@H](NC(=O)c4c(F)cccc4F)C(=O)O)cccc23)c1=O` [Compound 115] were 10 to 100 nM and 100 to 1000 nM.
For `Cn1ccc(=O)n(-c2cccc3c(C[C@H](NC(=O)c4ccc5cc(C(=O)N6CCC[C@@H]6c6ccccc6)ccc5c4)C(=O)O)cccc23)c1=O` [Compound 49] the same measures were > 1000 nM and > 1000 nM.
Taken in the same sequence, the figures for `Cn1ccc(=O)n(-c2cccc3c(C[C@H](NC(=O)c4ccc(C(=O)N5CCc6ccccc6C5)nc4)C(=O)O)cccc23)c1=O` [Compound 25] were > 1000 nM and > 1000 nM.
In the case of `O=C(N[C@@H](Cc1cccc2c(-c3cccc4ccncc34)nccc12)C(=O)O)c1c(F)cc(N2CCOC[C@@H]2C(F)(F)F)cc1F` [Compound 220], the IC50 against α4β7 integrin is 10 to 100 nM; on α4β1 integrin, > 1000 nM.
For the molecule `Cn1ccc(=O)n(-c2cccc3c(C[C@H](NC(=O)c4c(F)cc(N5CCOC[C@@H]5C(F)(F)F)cc4CN4CCOCC4)C(=O)O)cccc23)c1=O` [Compound 20], the IC50 at α4β7 integrin is < 10 nM; against α4β1 integrin, 100 to 1000 nM.
Taken in the same sequence, the figures for `Cc1nccc(F)c1C(=O)N[C@@H](Cc1cccc2c(-n3c(=O)ccn(C)c3=O)cccc12)C(=O)O` [Compound 17] were 10 to 100 nM and > 1000 nM.
For the molecule `CN1CCN(Cc2cc(N3CCOC[C@@H]3C(F)(F)F)cc(F)c2C(=O)N[C@@H](Cc2cccc3c(-c4c(C(F)(F)F)ccn(C)c4=O)nccc23)C(=O)O)CC1` [Compound 248], the concentration for half-maximal inhibition (IC50) against α4β7 integrin was < 10 nM; on α4β1 integrin, > 1000 nM.
For `Cn1cc(CCO)c(=O)n(-c2cccc3c(C[C@H](NC(=O)c4c(F)cccc4F)C(=O)O)cccc23)c1=O` [Compound 137] the same measures were 10 to 100 nM and > 1000 nM.
As to `Cc1cc(C(F)(F)F)c(-c2cccc3c(C[C@H](NC(=O)c4c(F)cc(N5CCOC[C@@H]5C(F)(F)F)cc4F)C(=O)O)cccc23)c(=O)n1C` [Compound 113], the values for the IC50 against α4β7 integrin and against α4β1 integrin were < 10 nM and 100 to 1000 nM, respectively.
Consider `Cn1ccc(=O)n(-c2cccc3c(C[C@H](NC(=O)[C@@H]4[C@@H]5CC[C@H]4CN(CC(F)(F)F)C5)C(=O)O)cccc23)c1=O` [Compound 155], for which the IC50 at α4β7 integrin and against α4β1 integrin was > 1000 nM throughout.
For `Cn1ccc(C(F)(F)F)c(-c2nccc3c(C[C@H](NC(=O)c4c(Cl)cc(N5CCOC[C@@H]5C(F)(F)F)cc4CN4CCOCC4)C(=O)O)cccc23)c1=O` [Compound 225], the results for the IC50 against α4β7 integrin and against α4β1 integrin were < 10 nM and > 1000 nM, respectively.
With `CCOCc1cc(OC)c(-c2cccc3c(C[C@H](NC(=O)c4c(F)cccc4F)C(=O)O)cccc23)c(OC)c1` [Compound 172], the half-inhibitory concentration (IC50) on α4β7 integrin lay in the range of 10 to 100 nM; at α4β1 integrin, 100 to 1000 nM.
`Cn1ccc(=O)n(-c2cccc3c(C[C@H](NC(=O)C4(Cc5ccc(F)cc5)CCC(F)(F)CC4)C(=O)O)cccc23)c1=O` [Compound 64]: the IC50 on α4β7 integrin and against α4β1 integrin was > 1000 nM throughout.
As to `CCOCc1cc(OC)c(-c2nccc3c(C[C@H](NC(=O)c4c(F)cc(N5CCOC[C@@H]5C(F)(F)F)cc4F)C(=O)O)cccc23)c(OC)c1` [Compound 259], the IC50 against α4β7 integrin was < 10 nM; on α4β1 integrin, 100 to 1000 nM.
Turning to `CCc1ccc(F)c(C(=O)N[C@@H](Cc2cccc3c(-n4c(=O)ccn(C)c4=O)cccc23)C(=O)O)c1F` [Compound 139], the figures for the IC50 on α4β7 integrin and against α4β1 integrin were 10 to 100 nM and 100 to 1000 nM, respectively.
With `Cn1ccc(=O)n(-c2cccc3c(C[C@H](NC(=O)[C@@H]4CCCN4c4ccccc4C#N)C(=O)O)cccc23)c1=O` [Compound 79], the values for the IC50 against α4β7 integrin and against α4β1 integrin were 10 to 100 nM and > 1000 nM, respectively.
On to `Cn1ccc(=O)n(-c2cccc3c(C[C@H](NC(=O)C4C(C)(C)CN(CC(F)(F)F)CC4(C)C)C(=O)O)cccc23)c1=O` [Compound 156], for which the figures for the IC50 against α4β7 integrin and against α4β1 integrin were 100 to 1000 nM and > 1000 nM, respectively.
As for `CN1CCN(c2cc(F)c(C(=O)N[C@@H](Cc3cccc4c(-n5c(=O)ccn(C)c5=O)cccc34)C(=O)O)c(F)c2)[C@@H](C(F)(F)F)C1` [Compound 21], the IC50 at α4β7 integrin was 10 to 100 nM; at α4β1 integrin it was > 1000 nM.
Taken in the same sequence, the figures for `Cn1ccc(C(F)(F)F)c(-c2nccc3c(C[C@H](NC(=O)c4cc(F)cc(CSc5ccccc5)c4)C(=O)O)cccc23)c1=O` [Compound 229] were > 1000 nM and > 1000 nM.
As for `CN1CCN(c2cc(F)c(C(=O)N[C@@H](Cc3cccc4c(-c5c(C(F)(F)F)ccn(C)c5=O)nccc34)C(=O)O)c(F)c2)[C@@H](C(F)(F)F)C1` [Compound 249], the IC50 is 10 to 100 nM at α4β7 integrin and > 1000 nM against α4β1 integrin.
`Cn1ccc(=O)n(-c2cccc3c(C[C@H](NC(=O)c4cc(C(=O)NCCCCN)n(-c5ccccc5)n4)C(=O)O)cccc23)c1=O` [Compound 45]: the IC50 at α4β7 integrin and on α4β1 integrin was > 1000 nM each time.
In the case of `Cn1ccc(=O)n(-c2cccc3c(C[C@H](NC(=O)C4(C)CCN(CC(F)F)CC4)C(=O)O)cccc23)c1=O` [Compound 58], the half-inhibitory concentration (IC50) is 10 to 100 nM against α4β7 integrin and > 1000 nM at α4β1 integrin.
Taken in the same sequence, the figures for `CC(C)CN1CCC(C)(C(=O)N[C@@H](Cc2cccc3c(-n4c(=O)ccn(C)c4=O)cccc23)C(=O)O)CC1` [Compound 59] were 10 to 100 nM and > 1000 nM.
In the case of `Cn1ccc(=O)n(-c2cccc3c(C[C@H](NC(=O)c4c(F)ccc(NS(=O)(=O)C(F)(F)F)c4F)C(=O)O)cccc23)c1=O` [Compound 12], the IC50 was < 10 nM on α4β7 integrin and 100 to 1000 nM at α4β1 integrin.
Turning to `COCCN1CCC(C)(C(=O)N[C@@H](Cc2cccc3c(-n4c(=O)ccn(C)c4=O)cccc23)C(=O)O)CC1` [Compound 159], the IC50 against α4β7 integrin is 100 to 1000 nM; at α4β1 integrin, > 1000 nM.
Taken in the same sequence, the figures for `Cn1ccc(C(F)(F)F)c(-c2nccc3c(C[C@H](NC(=O)c4c(CN5CCOCC5)cc(N5CCOC[C@@H]5C(F)(F)F)cc4C(F)(F)F)C(=O)O)cccc23)c1=O` [Compound 227] were > 1000 nM and > 1000 nM.
For `O=C(N[C@@H](Cc1cccc2c(-c3nccc4ccncc34)cccc12)C(=O)O)c1c(F)cc(N2CCOC[C@H]2CC(F)F)cc1F` [Compound 140], the figures for the IC50 at α4β7 integrin and at α4β1 integrin were 100 to 1000 nM and > 1000 nM, respectively.

By IC50 is commonly meant the concentration needed to halve the response being measured.
